In publication PMC9027957, “Interspecies Comparisons of the Effects of Potential Antiviral 3-Amidinophenylalanine Derivatives on Cytochrome P450 1A2 Isoenzyme” (Veterinary Sciences, 2022):

Columns and labels:
[1] = test system: chicken hepatic cell model; settings: cited from earlier work
CYP1A2 = molecular target: T1, CYP1A2 (Canis lupus familiaris, UniProt P56592); assay: CYP1A2 fluorometric activity assay in beagle hepatic microsomes; assay type: in vitro ADME; settings: beagle, dog, 15 min, 50 µM
T1 construct: endogenous in cells; host or cells: beagle hepatocytes
T1 sequence (P56592 1-512): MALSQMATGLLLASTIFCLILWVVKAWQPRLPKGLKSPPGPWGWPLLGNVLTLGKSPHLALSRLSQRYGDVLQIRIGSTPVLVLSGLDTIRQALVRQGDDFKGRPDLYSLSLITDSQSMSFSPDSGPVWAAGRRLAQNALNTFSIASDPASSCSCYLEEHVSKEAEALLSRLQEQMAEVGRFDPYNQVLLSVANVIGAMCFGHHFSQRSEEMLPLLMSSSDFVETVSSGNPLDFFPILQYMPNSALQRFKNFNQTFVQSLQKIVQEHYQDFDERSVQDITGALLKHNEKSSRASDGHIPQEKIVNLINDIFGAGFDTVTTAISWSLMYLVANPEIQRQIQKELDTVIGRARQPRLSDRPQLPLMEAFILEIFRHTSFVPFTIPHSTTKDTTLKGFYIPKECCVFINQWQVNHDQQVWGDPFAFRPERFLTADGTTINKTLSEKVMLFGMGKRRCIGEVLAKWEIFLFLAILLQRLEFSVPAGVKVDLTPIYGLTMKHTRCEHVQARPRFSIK
Protocol: The Biovision CYP assay (BioVision, Inc., Kampenhout, Belgium) utilizes a non-fluorescent CYP1A2 substrate capable of transforming into a highly fluorescent metabolite, which can be detected in the visible range. α-naphthoflavone was used as a CYP1A2 reference inhibitor at 6 µM during the experiments. Rat (Sprague–Dawley) and beagle (Gibco, Biocenter, Szeged, Hungary, protein concentration: 20 mg/mL) hepatic microsomal preparations were prepared separately by mixing 25 µL of the obtained rat or beagle microsomal suspension with 2425 µL assay buffer and with 50 µL NADPH generating system (100×). In the case of the cynomolgus monkey microsomal suspension (Primacyt, Schwerin, Germany, protein concentration: 5 mg/mL), the following volumes were applied: in addition to 100 µL of monkey microsomal suspension, the amount of assay buffer and the NADPH generating system were adjusted in order to ensure the original ratios of these components to reach a final volume of 2500 µL. Rat, beagle, and cynomolgus monkey microsomal suspension aliquots (50 µL) were treated with the protease inhibitor 20 µL, 0–1000 µM), the reference compound α-naphthoflavone (20 µL, 30 µM), or the assay buffer without test compounds (20 µL, background control) for 15 min at 37 °C. After incubation, 30 µL of the appropriate CYP1A2 substrate/NADP+ mixture was added to each well, yielding a final reaction volume of 100 µL/well. The protein contents of the obtained microsomes were analysed using bicinchoninic acid protein assay kit (Pierce BCA kit, Thermo Fisher Scientific, Waltham, MA, USA). […] The fluorescence intensities were measured with a fluorometer (Victor X2 2030, Perkin Elmer, Waltham, MA, USA), using λEx/Em = 406/468 nm.

[2] = test system: intestinal epithelial cells; settings: up to a concentration 50 μM; cited from earlier work
[3] = test system: cynomolgus monkey hepatocytes; assay: MTS cytotoxicity assay in cynomolgus monkey primary hepatocytes; assay type: cell-based; settings: 50 μM and 100 μM, 24 h
Protocol: Rat, beagle, and cynomolgus monkey cryopreserved primary hepatocytes were obtained from Primacyt Cell Culture Company (Schwerin, Germany). The thawing, plating, and maintenance media were purchased from Lonza Group Ltd. (Biocenter Ltd., Szeged, Hungary). Influence of inhibitors MI-432 and MI-1900 on the viability of primary […] hepatocytes was tested. Hepatocytes, grown on a 96-well plate for 24 h, were incubated with the inhibitors at 0, 50, and at 100 µM for 24 h in treated groups. The control cells were incubated only with cell maintenance medium. After removal of the medium and three-fold washing of the cells with phosphate-buffered saline (PBS), 20 μL aliquots of CellTiter 96 AQueous one solution (MTS, Promega, Bioscience, Budapest, Hungary) were pipetted into a 96-well plate, each containing 100 μL of phenol red free medium. The plate was incubated with dye for 2 h. Viability of hepatocytes was measured at 490 nm using an EZ Read Biochrom 400 microplate reader.

N=C(N)c1cccc(C[C@H](NS(=O)(=O)c2cccc(-c3ccc(Cl)cc3Cl)c2)C(=O)N2CCC(CCN)CC2)c1 [MI-432]
redox homeostasis [1]: only transiently disturbed
beagle hepatic microsomal CYP1A2 isoenzyme activity (CYP1A2): reduced the activity of CYP1A2

COc1ccc(-c2cccc(S(=O)(=O)N[C@@H](Cc3cccc(C(=N)N)c3)C(=O)N3CCN(C(=O)NC4CCCCC4)CC3)c2)c(OC)c1 [MI-1900]
extracellular hydrogen peroxide levels [2]: did not result in elevation in extracellular hydrogen peroxide levels
cell viability vs control [3]: No significant differences
